Experiments:
[1] = for thermal conductivity: 101.33 kPa, Modified transient plane source method; for Normal melting temperature: Crystal 1, DTA; for Triple point temperature: DSC
[2] = Molar enthalpy of transition or fusion; conditions: DSC

CCCCCCCCCCCCCCCCCCCCCCCC [tetracosane]
[1]
Conditions	thermal conductivity [W/m/K]
297.6 K, Crystal 2	0.594
302.3 K, Crystal 2	0.545
307.7 K, Crystal 2	0.545
312.9 K, Crystal 2	0.603
323.1 K, Liquid	0.152
328 K, Liquid	0.151
333 K, Liquid	0.149
337.6 K, Liquid	0.148
343.1 K, Liquid	0.146
348 K, Liquid	0.146
353 K, Liquid	0.145

Conditions	Normal melting temperature [°C]
[1]	50.0

Conditions	Molar enthalpy of transition or fusion, [2] [kcal/mol]	Triple point temperature, [1] [K]
Crystal 1	12.2	–
Crystal 2	7.41	320.8

CCCCCCCCCCCCCCCCCCCCCCCCCC [hexacosane]
thermal conductivity [W/m/K], [1]
Conditions	297.6 K	302.4 K	307.8 K	312.7 K	318.5 K	333 K	337.8 K	343.1 K	348 K	353.1 K
Crystal 2	0.499	0.524	0.484	0.513	0.574	–	–	–	–	–
Liquid	–	–	–	–	–	0.151	0.15	0.149	0.148	0.147

Conditions	Normal melting temperature [°C]
[1]	55.7

Conditions	Molar enthalpy of transition or fusion, [2] [kcal/mol]	Triple point temperature, [1] [K]
Crystal 1	13.2	–
Crystal 2	7.37	325.7

CCCCCCCCCCCCCCCCCCCCCCCCCCCCCCCC [dotriacontane]
[1]
Conditions	thermal conductivity [W/m/K]
297.7 K, Crystal 2	0.574
302.3 K, Crystal 2	0.574
307.5 K, Crystal 2	0.585
312.8 K, Crystal 2	0.607
318 K, Crystal 2	0.585
323.1 K, Crystal 2	0.561
328 K, Crystal 2	0.588
332.6 K, Crystal 2	0.621
343 K, Liquid	0.153
348 K, Liquid	0.152
353.1 K, Liquid	0.149

Conditions	Normal melting temperature [°C]
[1]	69

Conditions	Molar enthalpy of transition or fusion, [2] [kcal/mol]	Triple point temperature, [1] [K]
Crystal 1	18	–
Crystal 2	9.3	338.1

CCCCCCCCCCCCCCCCCCCCCC [docosane]
[1]
Conditions	thermal conductivity [W/m/K]
297.6 K, Crystal 2	0.624
302.4 K, Crystal 2	0.668
307.9 K, Crystal 2	0.637
318.1 K, Liquid	0.151
323 K, Liquid	0.15
328.1 K, Liquid	0.148
333 K, Liquid	0.146
337.7 K, Liquid	0.145
343 K, Liquid	0.144
347.9 K, Liquid	0.143
353 K, Liquid	0.142

Conditions	Normal melting temperature [°C]
[1]	43.5

Conditions	Molar enthalpy of transition or fusion, [2] [kcal/mol]	Triple point temperature, [1] [K]
Crystal 1	9.92	–
Crystal 2	6.92	315.6

CCCCCCCCCCCC [dodecane]
[1], Liquid
Conditions	thermal conductivity [W/m/K]
318.2 K	0.135
323.2 K	0.134
328.1 K	0.133
333.1 K	0.131
337.7 K	0.13
343.2 K	0.128
347.9 K	0.127
352.8 K	0.127

CCCCCCCCCCCCCCCCCCCCCCCCCCCCCC [triacontane]
thermal conductivity [W/m/K], [1]
Conditions	297.7 K	302.3 K	307.8 K	312.6 K	318.5 K	323.3 K	328 K	343.1 K	348 K	353.5 K
Crystal 2	0.616	0.603	0.556	0.612	0.559	0.514	0.536	–	–	–
Liquid	–	–	–	–	–	–	–	0.153	0.152	0.151

Conditions	Normal melting temperature [°C]
[1]	64.0

Conditions	Molar enthalpy of transition or fusion, [2] [kcal/mol]	Triple point temperature, [1] [K]
Crystal 1	16.7	–
Crystal 2	9.03	334.2

CCCCCCCCCCCCCCCCCCCCCCCCCCCC [octacosane]
thermal conductivity [W/m/K], [1]
Conditions	297.7 K	302.4 K	308 K	312.7 K	318.6 K	323.4 K	337.7 K	343.1 K	348 K	353 K
Crystal 2	0.514	0.489	0.471	0.469	0.473	0.505	–	–	–	–
Liquid	–	–	–	–	–	–	0.152	0.151	0.149	0.149

Conditions	Normal melting temperature [°C]
[1]	60.2

Conditions	Molar enthalpy of transition or fusion, [2] [kcal/mol]	Triple point temperature, [1] [K]
Crystal 1	15.1	–
Crystal 2	8.39	330.4
